Non-standard residues stand in square brackets, D forms with d. Residues, ends and D or L forms follow the SMILES beside them. *: point of attachment. Phe(F5) = N[C@@H](Cc1c(F)c(F)c(F)c(F)c1F)C(=O)O; Desaminotyrosyl = O=C(CCc1ccc(O)cc1)*; NMeY = CN[C@@H](Cc1ccc(O)cc1)C(=O)O; hArg = N=C(N)NCCCC[C@H](N)C(=O)O; Agmatine = N=C(N)NCCCCN*; Nle = CCCC[C@H](N)C(=O)O; Orn = NCCC[C@H](N)C(=O)O; Abu = CC[C@H](N)C(=O)O; Aoc = NCCCCCCCC(=O)O
Key:
[1] = biological target: T1, GHRH receptor (human pituitary membrane homogenates) (Homo sapiens, UniProt Q02643); test: GHRH receptor binding, ligand competition with 125I-labeled [His1,Nle27]hGHRH(1-32)NH2 (Table 6); conditions: for Relative affinitiy (Binding potency) vs GHRH: GHRH(1-29) = 1; for Relative affinitiy (Binding potency) vs JI-38: JI-38 = 1
T1 sequence (Q02643 23-423): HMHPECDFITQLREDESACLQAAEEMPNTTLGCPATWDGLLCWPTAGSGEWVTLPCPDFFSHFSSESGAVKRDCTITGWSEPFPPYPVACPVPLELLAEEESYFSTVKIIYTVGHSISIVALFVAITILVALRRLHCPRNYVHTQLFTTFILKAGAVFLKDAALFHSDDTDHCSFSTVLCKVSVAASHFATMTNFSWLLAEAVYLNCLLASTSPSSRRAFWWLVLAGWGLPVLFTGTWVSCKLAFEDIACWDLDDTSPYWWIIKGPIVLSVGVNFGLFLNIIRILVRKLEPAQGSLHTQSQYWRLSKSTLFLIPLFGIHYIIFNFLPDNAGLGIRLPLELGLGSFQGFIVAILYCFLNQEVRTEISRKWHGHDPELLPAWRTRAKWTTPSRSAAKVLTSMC

GH level = test: In vivo endocrine activity (GH release), subcutaneous administration; conditions: rat; for GH releasing potency relative to JI-38 (=1): s.c. injection
Method: Subcutaneous Administration. Adult male rats were used and anesthetized with pentobarbital (6 mg/100 g, b.w.), by i.p. injection. […] Blood samples were taken from the jugular vein 5, 15 and/or 30 minutes after the injection. The blood samples were centrifuged, plasma was removed and the GH level was measured by ELISA. The results are summarized in terms of potency in Table 9.

[2] = biological target: T1, GHRH receptor (human pituitary membrane homogenates); test: GHRH receptor binding, ligand competition with 125I-labeled JV-1-42 (Table 7); design: Normal human pituitaries were purchased from the National Hormone and Peptide Program; tissue National Hormone and Peptide Program (A. F. Parlow, Harbor-UCLA Medical Center, Torrance, Calif.); host or cells: normal human pituitary, membrane fraction / homogenate; conditions: JI-38 = 1

Compound | Relative affinitiy (Binding potency) vs GHRH [1] | Relative affinitiy (Binding potency) vs JI-38 [1] | further results
CCCC[C@H](NC(=O)[C@@H](NC(=O)[C@H](CC(=O)O)NC(=O)[C@H](CCC(N)=O)NC(=O)[C@H](CC(C)C)NC(=O)[C@H](CC(C)C)NC(=O)[C@H](CCCN)NC(=O)[C@H](CCCNC(=N)N)NC(=O)[C@H](C)NC(=O)[C@H](CO)NC(=O)[C@H](CC(C)C)NC(=O)[C@H](CCC(N)=O)NC(=O)[C@H](CC)NC(=O)[C@H](CC(C)C)NC(=O)[C@@H](NC(=O)[C@H](CCCN)NC(=O)[C@H](CCCNC(=N)N)NC(=O)[C@H](Cc1ccc(O)cc1)NC(=O)[C@H](CO)NC(=O)[C@H](CC(N)=O)NC(=O)[C@@H](NC(=O)[C@H](Cc1ccccc1)NC(=O)[C@@H](NC(=O)[C@H](C)NC(=O)[C@H](CC(=O)O)NC(=O)[C@H](C)NC(=O)CCc1ccc(O)cc1)[C@@H](C)CC)[C@@H](C)O)C(C)C)[C@@H](C)CC)C(=O)N[C@@H](CC(=O)O)C(=O)NCCCCNC(=N)N [JI-34, reference compound] (Desaminotyrosyl-ADAIFTNSYR[Orn]VL[Abu]QLSAR[Orn]LLQDI[Nle]D-Agmatine; N-terminus and C-terminus assumed) | 4.32 |  | 
CCCC[C@H](NC(=O)[C@@H](NC(=O)[C@H](CC(=O)O)NC(=O)[C@H](CCC(N)=O)NC(=O)[C@H](CC(C)C)NC(=O)[C@H](CC(C)C)NC(=O)[C@H](CCCN)NC(=O)[C@H](CCCNC(=N)N)NC(=O)[C@H](C)NC(=O)[C@H](CO)NC(=O)[C@H](CC(C)C)NC(=O)[C@H](CCC(N)=O)NC(=O)[C@H](CC)NC(=O)[C@H](CC(C)C)NC(=O)[C@@H](NC(=O)[C@H](CCCN)NC(=O)[C@H](CCCNC(=N)N)NC(=O)[C@H](Cc1ccc(O)cc1)NC(=O)[C@H](CO)NC(=O)[C@@H](NC(=O)[C@@H](NC(=O)[C@H](Cc1ccccc1)NC(=O)[C@@H](NC(=O)[C@H](C)NC(=O)[C@H](CC(=O)O)NC(=O)[C@H](C)NC(=O)CCc1ccc(O)cc1)[C@@H](C)CC)[C@@H](C)O)[C@@H](C)O)C(C)C)[C@@H](C)CC)C(=O)N[C@@H](CC(=O)O)C(=O)NCCCCNC(=N)N [JI-36, reference compound] (Desaminotyrosyl-ADAIFTTSYR[Orn]VL[Abu]QLSAR[Orn]LLQDI[Nle]D-Agmatine; N-terminus and C-terminus assumed) | 3.25 |  | 
CCCC[C@H](NC(=O)[C@@H](NC(=O)[C@H](CC(=O)O)NC(=O)[C@H](CCC(N)=O)NC(=O)[C@H](CC(C)C)NC(=O)[C@H](CC(C)C)NC(=O)[C@H](CCCN)NC(=O)[C@H](CCCNC(=N)N)NC(=O)[C@H](C)NC(=O)[C@H](CO)NC(=O)[C@H](CC(C)C)NC(=O)[C@H](CCC(N)=O)NC(=O)[C@H](CC)NC(=O)[C@H](CC(C)C)NC(=O)[C@@H](NC(=O)[C@H](CCCN)NC(=O)[C@H](CCCNC(=N)N)NC(=O)[C@H](Cc1ccc(O)cc1)NC(=O)[C@H](CO)NC(=O)[C@H](CCC(N)=O)NC(=O)[C@@H](NC(=O)[C@H](Cc1ccccc1)NC(=O)[C@@H](NC(=O)[C@H](C)NC(=O)[C@H](CC(=O)O)NC(=O)[C@@H](C)NC(=O)CCc1ccc(O)cc1)[C@@H](C)CC)[C@@H](C)O)C(C)C)[C@@H](C)CC)C(=O)N[C@@H](CC(=O)O)C(=O)N[C@@H](CCCNC(=N)N)C(=O)NCCCCCCCC(N)=O [Peptide P-21304, [Dat^1, D-Ala^2, Gln^8, Orn^12, Abu^15, Orn^21, Nle^27, Asp^28, Amc^30]hGHRH(1-30)NH2] (Desaminotyrosyl-[dA]DAIFTQSYR[Orn]VL[Abu]QLSAR[Orn]LLQDI[Nle]DR[Aoc]-NH2) | 74.0 | 24.4 | 
CCCC[C@H](NC(=O)[C@@H](NC(=O)[C@H](CC(=O)O)NC(=O)[C@H](CCC(N)=O)NC(=O)[C@H](CC(C)C)NC(=O)[C@H](CC(C)C)NC(=O)[C@H](CCCN)NC(=O)[C@H](CCCNC(=N)N)NC(=O)[C@H](C)NC(=O)[C@H](CO)NC(=O)[C@H](CC(C)C)NC(=O)[C@H](CCC(N)=O)NC(=O)[C@H](CC)NC(=O)[C@H](CC(C)C)NC(=O)[C@@H](NC(=O)[C@H](CCCN)NC(=O)[C@H](CCCNC(=N)N)NC(=O)[C@H](Cc1ccc(O)cc1)NC(=O)[C@H](CO)NC(=O)[C@H](CC(N)=O)NC(=O)[C@@H](NC(=O)[C@H](Cc1ccccc1)NC(=O)[C@@H](NC(=O)[C@H](C)NC(=O)[C@H](CC(=O)O)NC(=O)[C@@H](C)NC(=O)CCc1ccc(O)cc1)[C@@H](C)CC)[C@@H](C)O)C(C)C)[C@@H](C)CC)C(=O)N[C@@H](CC(=O)O)C(=O)N[C@@H](CCCNC(=N)N)C(=O)N[C@@H](CCCCNC(=N)N)C(N)=O [Peptide P-23252, [Dat^1-D-Ala^2, Orn^12, Abu^15, Orn^21, Nle^27, Asp^28, Har^30]hGHRH(1-30)NH2] (Desaminotyrosyl-[dA]DAIFTNSYR[Orn]VL[Abu]QLSAR[Orn]LLQDI[Nle]DR[hArg]-NH2) | 42.3 | 13.9 | 
CCCC[C@H](NC(=O)[C@@H](NC(=O)[C@H](CC(=O)O)NC(=O)[C@H](CCC(N)=O)NC(=O)[C@H](CC(C)C)NC(=O)[C@H](CC(C)C)NC(=O)[C@H](CCCN)NC(=O)[C@H](CCCNC(=N)N)NC(=O)[C@H](C)NC(=O)[C@H](CO)NC(=O)[C@H](CC(C)C)NC(=O)[C@H](CCC(N)=O)NC(=O)[C@H](CC)NC(=O)[C@H](CC(C)C)NC(=O)[C@@H](NC(=O)[C@H](CCCN)NC(=O)[C@H](CCCNC(=N)N)NC(=O)[C@H](Cc1ccc(O)cc1)NC(=O)[C@H](CO)NC(=O)[C@@H](NC(=O)[C@@H](NC(=O)[C@H](Cc1ccccc1)NC(=O)[C@@H](NC(=O)[C@H](C)NC(=O)[C@H](CC(=O)O)NC(=O)[C@@H](C)NC(=O)CCc1ccc(O)cc1)[C@@H](C)CC)[C@@H](C)O)[C@@H](C)O)C(C)C)[C@@H](C)CC)C(=O)N[C@@H](CC(=O)O)C(=O)N[C@@H](CCCNC(=N)N)C(=O)N[C@@H](CCCCNC(=N)N)C(N)=O [Peptide P-23254, [Dat^1, D-Ala^2, Thr^8, Orn^12, Abu^15, Orn^21, Nle^27, Asp^28, Har^30]hGHRH(1-30)NH2] (Desaminotyrosyl-[dA]DAIFTTSYR[Orn]VL[Abu]QLSAR[Orn]LLQDI[Nle]DR[hArg]-NH2) | 84.5 | 27.8 | 
CCCC[C@H](NC(=O)[C@@H](NC(=O)[C@H](CC(=O)O)NC(=O)[C@H](CCC(N)=O)NC(=O)[C@H](CC(C)C)NC(=O)[C@H](CC(C)C)NC(=O)[C@H](CCCN)NC(=O)[C@H](CCCNC(=N)N)NC(=O)[C@H](C)NC(=O)[C@H](CO)NC(=O)[C@H](CC(C)C)NC(=O)[C@H](CCC(N)=O)NC(=O)[C@H](CC)NC(=O)[C@H](CC(C)C)NC(=O)[C@@H](NC(=O)[C@H](CCCN)NC(=O)[C@H](CCCNC(=N)N)NC(=O)[C@H](Cc1ccc(O)cc1)NC(=O)[C@H](CO)NC(=O)[C@H](CC(N)=O)NC(=O)[C@@H](NC(=O)[C@H](Cc1c(F)c(F)c(F)c(F)c1F)NC(=O)[C@@H](NC(=O)[C@H](C)NC(=O)[C@H](CC(=O)O)NC(=O)[C@@H](C)NC(=O)[C@H](Cc1ccc(O)cc1)NC)[C@@H](C)CC)[C@@H](C)O)C(C)C)[C@@H](C)CC)C(=O)N[C@@H](CC(=O)O)C(=O)N[C@@H](CCCNC(=N)N)C(=O)NC [Peptide P-27404, [N—Me-Tyr^1, D-Ala^2, Fpa5^6, Orn^12, Abu^15, Orn^21, Nle^27, Asp^28]hGHRH(1-29)NH—CH3] (H-[NMeY][dA]DAI[Phe(F5)]TNSYR[Orn]VL[Abu]QLSAR[Orn]LLQDI[Nle]DR-NHMe) |  |  | Stimulation of growth hormone levels after s.c. administration (comparison in words) (GH level): stimulated greater growth hormone levels than hGHRH or JI-38; GH releasing potency relative to JI-38 (=1) (GH level; 15 min after): 2.07; GH releasing potency relative to JI-38 (=1) (GH level; 30 min after): 1.47; Relative affinitiy (Binding potency) vs JI-38 [2]: 5.00
CCCC[C@H](NC(=O)[C@@H](NC(=O)[C@H](CC(=O)O)NC(=O)[C@H](CCC(N)=O)NC(=O)[C@H](CC(C)C)NC(=O)[C@H](CC(C)C)NC(=O)[C@H](CCCN)NC(=O)[C@H](CCCNC(=N)N)NC(=O)[C@H](C)NC(=O)[C@H](CO)NC(=O)[C@H](CC(C)C)NC(=O)[C@H](CCC(N)=O)NC(=O)[C@H](CC)NC(=O)[C@H](CC(C)C)NC(=O)[C@@H](NC(=O)[C@H](CCCN)NC(=O)[C@H](CCCNC(=N)N)NC(=O)[C@H](Cc1ccc(O)cc1)NC(=O)[C@H](CO)NC(=O)[C@H](CC(N)=O)NC(=O)[C@@H](NC(=O)[C@H](Cc1ccccc1)NC(=O)[C@@H](NC(=O)[C@H](C)NC(=O)[C@H](CC(=O)O)NC(=O)[C@@H](C)NC(=O)[C@H](Cc1ccc(O)cc1)NC)[C@@H](C)CC)[C@@H](C)O)C(C)C)[C@@H](C)CC)C(=O)N[C@@H](CC(=O)O)C(=O)N[C@@H](CCCNC(=N)N)C(=O)NC [Peptide P-27409, [N—Me-Tyr^1, D-Ala^2, Orn^12, Abu^15, Orn^21, Nle^27, Asp^28]hGHRH(1-29)NH—CH3] (H-[NMeY][dA]DAIFTNSYR[Orn]VL[Abu]QLSAR[Orn]LLQDI[Nle]DR-NHMe) |  |  | Stimulation of growth hormone levels after s.c. administration (comparison in words) (GH level): stimulated greater growth hormone levels than hGHRH or JI-38; Relative affinitiy (Binding potency) vs JI-38 [2]: 4.10
